Assay: Stability of liquid formulations over range of pH 2-6 in succinate-buffered saline, HPLC purity, with extrapolation (Example 3)
Format: physicochemical
Conditions: 2.5 mg/mL
Protocol: The solution was divided evenly into five 4 mL portions which were adjusted to pH 2, 3, 4, 5 and 6, respectively, with NaOH and HCl as needed. Three 1 mL solutions were aliquoted from each portion and incubated at 2-8° C., room temperature (about 25° C.), and 40° C., respectively. The remaining 1 mL solution in each aliquot was diluted with pH 4.5 succinate buffered saline to 4 mL of 2.5 mg/mL peptide concentration, pH adjusted, and incubated in the same manner.
Based on the extent of degradation at 28 days, predictions of the extent of degradation were calculated as described, supra. Bolded values indicate conditions which show less than 10% degradation, and which may be preferred for a liquid formulation. Conditions where the sample at 28 days show slightly higher purity than the initial data are presented as 0.0% for all projections.
At each pH value, the degradation data for each of three temperatures is compared to data from the other two temperatures to calculate the observed acceleration. The predicted acceleration is by simple application of Arrhenius principles as described above.

SMILES: CC(=O)N[C@H](CSSC[C@H](N)C(=O)O)C(=O)N[C@H](C)C(=O)N[C@H](CCCNC(=N)N)C(=O)N[C@H](CCCNC(=N)N)C(=O)N[C@H](CCCNC(=N)N)C(=O)N[C@H](C)C(=O)N[C@H](CCCNC(=N)N)C(N)=O [AMG 416, N-acetyl-D-cysteinyl-D-alanyl-D-arginyl-D-arginyl-D-arginyl-D-alanyl-D-arginamide disulfide with L-cysteine]
- Observed degradation at 28 days (pH 2, 2-8° C.): 0.0%
- Observed degradation at 28 days (pH 2, 40° C.): 9.1%
- Observed degradation at 28 days (pH 2, RT): 0.6%
- Calculated Degradation 1 y 2-8° C. (pH 2, from 2-8° C. data): 0.0%
- Calculated Degradation 1 y RT (pH 2, from 2-8° C. data): 0.0%
- Calculated Degradation 2 y 2-8° C. (pH 2, from 2-8° C. data): 0.0%
- Calculated Degradation 2 y RT (pH 2, from 2-8° C. data): 0.0%
- Calculated Degradation 1 y (pH 2, from 40° C. data): 116.5%
- Calculated Degradation 1 y RT (pH 2, from 40° C. data): 29.1%
- Calculated Degradation 2 y 2-8° C. (pH 2, from 40° C. data): 14.6%
- Calculated Degradation 2 y RT (pH 2, from 40° C. data): 58.3%
- Calculated Degradation 1 y (pH 2, from RT data): 7.9%
- Calculated Degradation 1 y RT (pH 2, from RT data): 7.9%
- Calculated Degradation 2 y 2-8° C. (pH 2, from RT data): 4.0%
- Calculated Degradation 2 y RT (pH 2, from RT data): 15.9%
- Observed degradation at 28 days (pH 3, 2-8° C.): 0.0%
- Observed degradation at 28 days (pH 3, 40° C.): 1.8%
- Observed degradation at 28 days (pH 3, RT): 0.0%
- Calculated Degradation 1 y 2-8° C. (pH 3, from 2-8° C. data): 0.0%
- Calculated Degradation 1 y RT (pH 3, from 2-8° C. data): 0.0%
- Calculated Degradation 2 y 2-8° C. (pH 3, from 2-8° C. data): 0.0%
- Calculated Degradation 2 y RT (pH 3, from 2-8° C. data): 0.0%
- Calculated Degradation 1 y (pH 3, from 40° C. data): 22.5%
- Calculated Degradation 1 y RT (pH 3, from 40° C. data): 5.6%
- Calculated Degradation 2 y 2-8° C. (pH 3, from 40° C. data): 2.8%
- Calculated Degradation 2 y RT (pH 3, from 40° C. data): 11.3%
- Calculated Degradation 1 y (pH 3, from RT data): 0.0%
- Calculated Degradation 1 y RT (pH 3, from RT data): 0.0%
- Calculated Degradation 2 y 2-8° C. (pH 3, from RT data): 0.0%
- Calculated Degradation 2 y RT (pH 3, from RT data): 0.0%
- Observed degradation at 28 days (pH 4, 2-8° C.): −0.1%
- Observed degradation at 28 days (pH 4, 40° C.): 6.9%
- Observed degradation at 28 days (pH 4, RT): 0.3%
- Calculated Degradation 1 y 2-8° C. (pH 4, from 2-8° C. data): 0.0%
- Calculated Degradation 1 y RT (pH 4, from 2-8° C. data): 0.0%
- Calculated Degradation 2 y 2-8° C. (pH 4, from 2-8° C. data): 0.0%
- Calculated Degradation 2 y RT (pH 4, from 2-8° C. data): 0.0%
- Calculated Degradation 1 y (pH 4, from 40° C. data): 88.7%
- Calculated Degradation 1 y RT (pH 4, from 40° C. data): 22.2%
- Calculated Degradation 2 y 2-8° C. (pH 4, from 40° C. data): 11.1%
- Calculated Degradation 2 y RT (pH 4, from 40° C. data): 44.3%
- Calculated Degradation 1 y (pH 4, from RT data): 3.6%
- Calculated Degradation 1 y RT (pH 4, from RT data): 3.6%
- Calculated Degradation 2 y 2-8° C. (pH 4, from RT data): 1.8%
- Calculated Degradation 2 y RT (pH 4, from RT data): 7.2%
- Observed degradation at 28 days (pH 5, 2-8° C.): 0.2%
- Observed degradation at 28 days (pH 5, 40° C.): 26.1%
- Observed degradation at 28 days (pH 5, RT): 2.9%
- Calculated Degradation 1 y 2-8° C. (pH 5, from 2-8° C. data): 2.9%
- Calculated Degradation 1 y RT (pH 5, from 2-8° C. data): 11.8%
- Calculated Degradation 2 y 2-8° C. (pH 5, from 2-8° C. data): 5.9%
- Calculated Degradation 2 y RT (pH 5, from 2-8° C. data): 23.5%
- Calculated Degradation 1 y (pH 5, from 40° C. data): 333.6%
- Calculated Degradation 1 y RT (pH 5, from 40° C. data): 83.4%
- Calculated Degradation 2 y 2-8° C. (pH 5, from 40° C. data): 41.7%
- Calculated Degradation 2 y RT (pH 5, from 40° C. data): 166.8%
- Calculated Degradation 1 y (pH 5, from RT data): 37.7%
- Calculated Degradation 1 y RT (pH 5, from RT data): 37.7%
- Calculated Degradation 2 y 2-8° C. (pH 5, from RT data): 18.9%
- Calculated Degradation 2 y RT (pH 5, from RT data): 75.5%
- Observed degradation at 28 days (pH 6, 2-8° C.): 0.8%
- Observed degradation at 28 days (pH 6, 40° C.): 45.0%
- Observed degradation at 28 days (pH 6, RT): 18.1%
- Calculated Degradation 1 y 2-8° C. (pH 6, from 2-8° C. data): 10.7%
- Calculated Degradation 1 y RT (pH 6, from 2-8° C. data): 43.0%
- Calculated Degradation 2 y 2-8° C. (pH 6, from 2-8° C. data): 21.5%
- Calculated Degradation 2 y RT (pH 6, from 2-8° C. data): 86.0%
- Calculated Degradation 1 y (pH 6, from 40° C. data): 575.7%
- Calculated Degradation 1 y RT (pH 6, from 40° C. data): 143.9%
- Calculated Degradation 2 y 2-8° C. (pH 6, from 40° C. data): 72.0%
- Calculated Degradation 2 y RT (pH 6, from 40° C. data): 287.8%
- Calculated Degradation 1 y (pH 6, from RT data): 231.0%
- Calculated Degradation 1 y RT (pH 6, from RT data): 231.0%
- Calculated Degradation 2 y 2-8° C. (pH 6, from RT data): 115.5%
- Calculated Degradation 2 y RT (pH 6, from RT data): 462.1%
- predicted degradation over 2 years at RT (pH range 2-4, extrapolated from the 2-8° C. data): less than 10%

Reference: US11959486B2, “Stable liquid formulation of AMG 416 (etelcalcetide)” (AMGEN INC., priority 2013, dated 2024)
